Measured values from patent US6399629B1, “Efflux pump inhibitors” (priority 1998, dated 2002).

System: Pseudomonas aeruginosa PAM1001
Assay: microbe, parasite or virus in culture
Assay type: cell-based
Settings: Levofloxacin 0.25 μg/mL
Method in brief: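 P. aeruginosa PAM1001 grown in Mueller Hinton broth from 1×10^6 CFU/mL inoculum with levofloxacin 0.25 microg/mL plus varying EPI concentrations; growth followed by A650 over 18 h at 37° C. Result given as % growth inhibition versus levofloxacin-only culture without EPI.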

[1] = Concentration of Compound 2.5 μg/mL
[2] = Concentration of Compound 5 μg/mL
[3] = Concentration of Compound 10 μg/mL
[4] = Concentration of Compound 20 μg/mL
[5] = Concentration of Compound 40 μg/mL

Row | Molecule | Inhibition (%) of growth of P. aeruginosa PAM1001 [1] [%] | Inhibition (%) of growth of P. aeruginosa PAM1001 [2] [%] | Inhibition (%) of growth of P. aeruginosa PAM1001 [3] [%] | Inhibition (%) of growth of P. aeruginosa PAM1001 [4] [%] | Inhibition (%) of growth of P. aeruginosa PAM1001 [5] [%]
1 | Cl.Cl.Cl.NCC(=O)NC1CNC(C(=O)Nc2cccc(NC(=O)CCc3ccccc3)n2)C1 [Compound D702, 2-(trans-4-Glycylamino-L-Prolylamino)-6-(4-Phenylpropanoylamino)Pyridine Trihydrochloride] | 19 | 15 | 82 | 100 | 100
2 | Cl.Cl.NCC(=O)N[C@H]1CN[C@H](C=Cc2ccc(-c3ccccc3)cc2)C1 [Compound D801, (2S,4R)-4-Glycylamino-2-((E and Z)-4-Phenyistyryl)-pyrrolidine Dihydrochloride] | 8 | 63 | 99 | 99 | 99
3 | trans-4-Glycylamino-D-proline 3-Biphenylamide Dihydrochloride [Compound D307] | 24 | 5 | 90 | 100 | 100
4 | trans-4-Glycylamino-L-Proline 3-Biphenylamide Dihydrochloride [Compound D306] | 19 | 7 | 93 | 100 | 99
5 | trans-4-Glycylamino-L-Prolyl-4-(2-Chloro-5-Methylphenoxy)-piperidine Dihydrochloride [Compound D416] | 21 | 11 | 87 | 99 | 99
